What was measured:
dog [1] = details: Sub-acute repeat dose toxicity; beagle; Oral; Gavage/Intubation; dose end: 14 day; group: systemic; systemic / in life observation / clinical signs / emesis + systemic / in life observation / clinical signs / salivation + systemic / in life…
dog [2] = details: Sub-acute repeat dose toxicity, beagle, Oral, Gavage/Intubation, dose end: 29 day, group: systemic
mouse [3] = details: Sub-acute repeat dose toxicity, Oral, Gavage/Intubation, dose end: 7 day, group: systemic
mouse [4] = details: Sub-acute repeat dose toxicity; Oral; Feed; dose end: 14 day; group: systemic; systemic / in life observation / clinical signs / [other] + systemic / in life observation / clinical signs / anogenital staining + systemic…
rat [5] = details: Sub-acute repeat dose toxicity; Oral; Feed; dose end: 14 day; group: systemic; systemic / in life observation / clinical signs / defecation + systemic / in life observation / clinical signs / hunched posture + systemic…
rat [6] = details: Sub-acute repeat dose toxicity, Oral, Gavage/Intubation, dose end: 7 day, group: systemic
mouse [7] = details: Fertility (Segment I), Oral, Gavage/Intubation, dose end: 1 generation
rat [8] = details: Sub-acute repeat dose toxicity; Oral; Gavage/Intubation; dose end: 7 day; group: systemic; systemic / pathology microscopic / kidney / hyaline droplet + systemic / pathology microscopic / kidney / regeneration + systemic / …
rat [9] = details: Sub-acute repeat dose toxicity; Oral; Gavage/Intubation; dose end: 7 day; group: systemic; systemic / clinical chemistry / cholesterol / cholesterol + systemic / clinical chemistry / gamma glutamyl transferase (ggt) / gamma …
dog [10] = details: Chronic toxicity, beagle, Oral, Gavage/Intubation, dose end: 274 day, group: systemic
rabbit [11] = details: Sub-acute repeat dose toxicity, Oral, Gavage/Intubation, dose end: 7 day, group: systemic
dog [12] = details: Chronic toxicity; beagle; Oral; Capsule; dose end: 1 year; group: systemic; systemic / in life observation / body weight / body weight + systemic / in life observation / clinical signs / vomitting + systemic / in …
dog [13] = details: Sub-acute repeat dose toxicity; beagle; Oral; Capsule; dose end: 1 month; group: systemic; systemic / clinical chemistry / glucose / glucose + systemic / in life observation / body weight / body weight + systemic / in life …
rat [14] = details: Chronic toxicity, sprague dawley, Oral, Gavage/Intubation, dose end: 6 month, group: systemic
mouse [15] = details: Sub-acute repeat dose toxicity, cd1, Oral, Gavage/Intubation, dose end: 4 week, group: systemic
mouse [16] = details: Sub-acute repeat dose toxicity, cd1, Oral, Gavage/Intubation, dose end: 4 week, group: systemic; remark: listed apart in the source
rat [17] = details: Prenatal developmental toxicity study, sprague dawley, Oral, Gavage/Intubation, dose end: 17 GD, group: maternal
rat [18] = details: Sub-acute repeat dose toxicity, sprague dawley, Oral, Gavage/Intubation, dose end: 28 day, group: systemic
rabbit [19] = details: Prenatal developmental toxicity study; new zealand white; Oral; Gavage/Intubation; dose end: 19 GD; group: maternal; systemic / in life observation / body weight / body weight gain + systemic / in life observation / clinical signs / anogenital staining + …
[20] = systemic / in life observation / clinical signs / arrhythmia + systemic / organ weight / testes / absolute + systemic / organ weight / …
[21] = systemic / in life observation / food consumption / food consumption + systemic / pathology microscopic / liver / depletion glycogen + …
[22] = systemic / clinical chemistry / cholesterol / cholesterol + systemic / pathology microscopic / liver / vacuolization + systemic / clinical …
[23] = systemic / clinical chemistry / cholesterol / cholesterol + systemic / clinical chemistry / protein / protein + systemic / hematology / …
[24] = systemic / clinical chemistry / cholesterol / cholesterol + systemic / hematology / eosinophils / eosinophils + systemic / clinical …
[25] = group: maternal, reproductive / reproductive performance / mating / mating + reproductive / reproductive performance / precoital interval / precoital …
[26] = group: parental, systemic / in life observation / body weight / body weight gain + systemic / in life observation / food consumption / food consumption + …
[27] = systemic / in life observation / clinical signs / defecation (diarrhea) + systemic / in life observation / clinical signs / soft stools
[28] = systemic / in life observation / clinical signs / defecation (diarrhea) + systemic / in life observation / clinical signs / soft stools + …
[29] = systemic / in life observation / body weight / body weight + systemic / in life observation / clinical signs / tachypnea + systemic / in …
[30] = systemic / clinical chemistry / albumin / albumin + systemic / clinical chemistry / alkaline phosphatase (alp/alk) / alkaline phosphatase (…
[31] = systemic / clinical chemistry / albumin / albumin + systemic / clinical chemistry / aspartate aminotransferase (ast/sgot) / aspartate …
[32] = systemic / in life observation / clinical signs / alopecia + systemic / in life observation / clinical signs / external lesion(s) + systemic…
[33] = systemic / in life observation / clinical signs / scabbing + systemic / in life observation / body weight / body weight + systemic / in life…
[34] = systemic / in life observation / clinical signs / alopecia + systemic / in life observation / clinical signs / scabbing + systemic / organ …
[35] = systemic / organ weight / liver / absolute + systemic / organ weight / liver / relative to body weight + systemic / pathology gross / lung…
[36] = reproductive / reproductive performance / implantations / implantations + reproductive / reproductive performance / postimplantation loss / …
[37] = systemic / in life observation / body weight / body weight + systemic / in life observation / body weight / body weight gain + systemic / in…
[38] = systemic / clinical chemistry / alanine aminotransferase (alt/sgpt) / alanine aminotransferase (alt/sgpt) + systemic / clinical chemistry / …
[39] = systemic / clinical chemistry / alanine aminotransferase (alt/sgpt) / alanine aminotransferase (alt/sgpt) + systemic / in life observation…

For `CCc1nn(CCO)c(CC)c1Oc1cc(C#N)cc(C#N)c1` [Lersivirine], which LEL (dog [1]) is on record?
The LEL was 5 mg/kg/day.

And the LOAEL (dog [1])?
Its LOAEL is > 150 mg/kg/day.

And the NEL (dog [1])?
Its NEL is < 5 mg/kg/day.

What about the NOAEL (dog [1]) of the same molecule?
Its NOAEL is ≥ 150 mg/kg/day.

And the LEL (dog [2]; [20])?
The LEL was 10 mg/kg/day.

What about the NEL (dog [2]; [20]) of the same molecule?
Its NEL is < 10 mg/kg/day.

What about the LOAEL (dog [2]; [21]) of the same molecule?
Its LOAEL is > 50 mg/kg/day.

What about the NOAEL (dog [2]; [21]) of the same molecule?
The NOAEL was ≥ 50 mg/kg/day.

And the LOAEL (mouse [3]; [22])?
Its LOAEL is > 250 mg/kg/day.

What about the NOAEL (mouse [3]; [22]) of the same molecule?
The NOAEL was ≥ 250 mg/kg/day.

And the NEL (mouse [3]; systemic / organ weight / liver / absolute + systemic / pathology microscopic / liver / hypertrophy)?
Its NEL is < 35 mg/kg/day.

And the LOAEL (mouse [4])?
Its LOAEL is > 3000 mg/kg/day.

And the NEL (mouse [4])?
The NEL was 750 mg/kg/day.

And the NOAEL (mouse [4])?
Its NOAEL is ≥ 3000 mg/kg/day.

What about the LOAEL (rat [5]) of the same molecule?
The LOAEL was > 1500 mg/kg/day.

What about the NEL (rat [5]) of the same molecule?
Its NEL is 750 mg/kg/day.

What about the NOAEL (rat [5]) of the same molecule?
Its NOAEL is ≥ 1500 mg/kg/day.

And the LEL (rat [6]; [23])?
The LEL was 70 mg/kg/day.

What about the NEL (rat [6]; [23]) of the same molecule?
The NEL was < 70 mg/kg/day.

What about the LOAEL (rat [6]; [24]) of the same molecule?
The LOAEL was > 1000 mg/kg/day.

And the NOAEL (rat [6]; [24])?
Its NOAEL is ≥ 1000 mg/kg/day.

And the LEL (mouse [7]; [25])?
The LEL was 700 mg/kg/day.

What about the LOAEL (mouse [7]; [25]) of the same molecule?
The LOAEL was > 700 mg/kg/day.

And the NEL (mouse [7]; [25])?
Its NEL is 200 mg/kg/day.

What about the NOAEL (mouse [7]; [25]) of the same molecule?
Its NOAEL is ≥ 700 mg/kg/day.

And the LEL (mouse [7]; [26])?
The LEL was 700 mg/kg/day.

What about the LOAEL (mouse [7]; [26]) of the same molecule?
The LOAEL was > 700 mg/kg/day.

And the NEL (mouse [7]; [26])?
Its NEL is 200 mg/kg/day.

What about the NOAEL (mouse [7]; [26]) of the same molecule?
The NOAEL was ≥ 700 mg/kg/day.

And the LEL (rat [8])?
Its LEL is 23 mg/kg/day.

And the LOAEL (rat [8])?
The LOAEL was > 100 mg/kg/day.

And the NEL (rat [8])?
Its NEL is < 23 mg/kg/day.

What about the NOAEL (rat [8]) of the same molecule?
The NOAEL was ≥ 100 mg/kg/day.

And the LOAEL (rat [9])?
Its LOAEL is > 35 mg/kg/day.

What about the NEL (rat [9]) of the same molecule?
Its NEL is < 35 mg/kg/day.

And the NOAEL (rat [9])?
Its NOAEL is ≥ 35 mg/kg/day.

What about the LEL (dog [10]; [27]) of the same molecule?
Its LEL is 5 mg/kg/day.

And the NEL (dog [10]; [27])?
The NEL was < 5 mg/kg/day.

What about the LOAEL (dog [10]; [28]) of the same molecule?
Its LOAEL is > 45 mg/kg/day.

What about the NOAEL (dog [10]; [28]) of the same molecule?
Its NOAEL is ≥ 45 mg/kg/day.

What about the LOAEL (rabbit [11]; [29]) of the same molecule?
Its LOAEL is > 500 mg/kg/day.

What about the NEL (rabbit [11]; [29]) of the same molecule?
Its NEL is 20 mg/kg/day.

And the NOAEL (rabbit [11]; [29])?
Its NOAEL is ≥ 500 mg/kg/day.

What about the LEL (rabbit [11]; systemic / in life observation / clinical signs / tachypnea + systemic / in life observation / food consumption / food consumption) of the same molecule?
Its LEL is 200 mg/kg/day.

Which LEL (dog [12]) does the source give for `CCc1c(C(=O)NN2CCCCC2)nn(-c2ccc(Cl)cc2Cl)c1-c1ccc(Br)cc1` [Surinabant] here?
Its LEL is 1 mg/kg/day.

What about the LOAEL (dog [12]) of the same molecule?
Its LOAEL is 1 mg/kg/day.

And the NEL (dog [12])?
The NEL was < 1 mg/kg/day.

What about the NOAEL (dog [12]) of the same molecule?
The NOAEL was < 1 mg/kg/day.

And the LEL (dog [13])?
Its LEL is 10 mg/kg/day.

What about the LOAEL (dog [13]) of the same molecule?
The LOAEL was 10 mg/kg/day.

What about the NEL (dog [13]) of the same molecule?
Its NEL is < 10 mg/kg/day.

And the NOAEL (dog [13])?
Its NOAEL is < 10 mg/kg/day.

And the LOAEL (rat [14]; [30])?
The LOAEL was > 100 mg/kg/day.

What about the NOAEL (rat [14]; [30]) of the same molecule?
Its NOAEL is ≥ 100 mg/kg/day.

And the LEL (rat [14]; [31])?
Its LEL is 10 mg/kg/day.

And the NEL (rat [14]; [31])?
Its NEL is < 10 mg/kg/day.

What about the LOAEL (mouse [15]; [32]) of the same molecule?
Its LOAEL is > 4000 mg/kg/day.

What about the NOAEL (mouse [15]; [32]) of the same molecule?
The NOAEL was ≥ 4000 mg/kg/day.

And the LEL (mouse [15]; [33])?
Its LEL is 1000 mg/kg/day.

And the NEL (mouse [15]; [33])?
The NEL was < 1000 mg/kg/day.

What about the LOAEL (mouse [16]; [34]) of the same molecule?
The LOAEL was > 4000 mg/kg/day.

And the NOAEL (mouse [16]; [34])?
The NOAEL was ≥ 4000 mg/kg/day.

What about the LEL (mouse [16]; [35]) of the same molecule?
The LEL was 1000 mg/kg/day.

What about the NEL (mouse [16]; [35]) of the same molecule?
The NEL was < 1000 mg/kg/day.

And the LOAEL (rat [17]; [36])?
Its LOAEL is > 100 mg/kg/day.

And the NOAEL (rat [17]; [36])?
Its NOAEL is ≥ 100 mg/kg/day.

And the LEL (rat [17]; [37])?
The LEL was 10 mg/kg/day.

And the NEL (rat [17]; [37])?
Its NEL is < 10 mg/kg/day.

And the LOAEL (rat [18]; [38])?
Its LOAEL is > 300 mg/kg/day.

What about the NOAEL (rat [18]; [38]) of the same molecule?
Its NOAEL is ≥ 300 mg/kg/day.

What about the LEL (rat [18]; [39]) of the same molecule?
Its LEL is 30 mg/kg/day.

And the NEL (rat [18]; [39])?
Its NEL is < 30 mg/kg/day.

What about the LEL (rabbit [19]) of the same molecule?
The LEL was 0.5 mg/kg/day.

What about the LOAEL (rabbit [19]) of the same molecule?
Its LOAEL is 2 mg/kg/day.

And the NEL (rabbit [19])?
Its NEL is < 0.5 mg/kg/day.

And the NOAEL (rabbit [19])?
Its NOAEL is 0.5 mg/kg/day.
